The test deals with T1, Angiotensin II-Rezeptor (Rattus norvegicus, UniProt P25095).
T1 construct: Das Gewebe (Rattenlunge) wird in Tris-Puffer; from tissue; host or cells: rat lung homogenate (membrane pellet, 20,000 x g)
T1 sequence (P25095 1-359): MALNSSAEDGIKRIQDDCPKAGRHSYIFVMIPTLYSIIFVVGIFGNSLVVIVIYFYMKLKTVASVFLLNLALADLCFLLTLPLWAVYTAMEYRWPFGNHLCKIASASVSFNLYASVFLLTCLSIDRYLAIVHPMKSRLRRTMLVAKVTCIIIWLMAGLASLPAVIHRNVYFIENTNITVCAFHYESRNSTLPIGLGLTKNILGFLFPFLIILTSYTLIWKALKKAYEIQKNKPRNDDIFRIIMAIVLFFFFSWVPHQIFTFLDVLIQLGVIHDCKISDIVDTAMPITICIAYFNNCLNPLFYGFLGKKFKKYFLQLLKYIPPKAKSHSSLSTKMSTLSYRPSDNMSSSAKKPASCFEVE
Kind of test: Angiotensin II receptor binding ([125I]-angiotensin II displacement, rat lung homogenate). Set-up: species or system Ratte. The note with it: Rattenlunge homogenate, 50 pM [¹²⁵I]-Angiotensin II, 60 Min. bei 37°C; read-out: IC₅₀. As to the method: Methodenbeschreibung Angiotensin II-Rezeptorbindung
Das Gewebe (Rattenlunge) wird in Tris-Puffer (50 mMol Tris, 150 mMol NaCl, 5 mMol EDTA, pH 7.40) homogenisiert und zweimal je 20 Min. bei 20.000 x g zentrifugiert. Das endgültige Pellet wird in Inkubations-Puffer (50 mMol Tris, 5 mMol MgCl₂, 0,2 % BSA, pH 7,40) 1:75, bezogen auf das Feuchtgewicht des Gewebes, resuspendiert. Je 0,1 ml Homogenat wird für 60 Min. bei 37°C mit 50 pM [¹²⁵I]-Angiotensin II (NEN, Dreieich, FRG) und steigenden Konzentrationen der Testsubstanz in einem Gesamtvolumen von 0,25 ml inkubiert. Die Inkubation wird durch rasche Filtration durch Glasfiber-Filtermatten beendet. Die Filter werden je 4 ml eiskaltem Puffer (25 mMol Tris, 2.5 mMol MgCl₂, 0,1 % BSA, pH 7,40) gewaschen. Die gebundene Radioaktivität wird in einem Gamma-Counter ermittelt. Aus der Dosis-Wirkungskurve wird der entsprechende IC₅₀-Wert ermittelt.
Turning to `CCCc1nc2c(C)cc(-c3nc4c([nH]3)CCCC4)cc2n1Cc1ccc(-c2ccccc2C(=O)O)cc1` [Substanz A, 4'-[[2-n-Propyl-4-methyl-6-(5,6,7,8-tetrahydrobenzimidazol-2-yl)-1H-benzimidazol-1-yl]-methyl]-biphenyl-2-carbonsäure], the IC50 is 12 nM.

`CCCc1nc2c(C)cc(-c3nc4c(n3C)CCCC4)cc2n1Cc1ccc(-c2ccccc2C(=O)O)cc1` [Substanz B, 4'-[[2-n-Propyl-4-methyl-6-(1-methyl-5,6,7,8-tetrahydrobenzimidazol-2-yl)-1H-benzimidazol-1-yl]-methyl]-biphenyl-2-carbonsäure]: the IC50 was found to be 3.8 nM.

For `CCCc1nc2c(C)cc(-c3nc4c(n3C)CCCC4)cc2n1Cc1ccc(-c2ccccc2-c2nnn[nH]2)cc1` [Substanz C, 4'-[[2-n-Propyl-4-methyl-6-(1-methyl-5,6,7,8-tetrahydrobenzimidazol-2-yl)-1H-benzimidazol-1-yl]-methyl]-2-(1H-tetrazol-5-yl)biphenyl], the IC50 amounted to 2.6 nM.

Regarding `CCCc1nc2c(C)cc(-c3nc4c(n3Cc3ccccc3)CCCC4)cc2n1Cc1ccc(-c2ccccc2C(=O)O)cc1` [Substanz D, 4'-[[2-n-Propyl-4-methyl-6-(1-benzyl-5,6,7,8-tetrahydrobenzimidazol-2-yl)-1H-benzimidazol-1-yl]-methyl]-biphenyl-2-carbonsäure], the IC50 was determined as 6 nM.

Regarding `CCc1nc2c(C)cc(-c3nc4c(n3-c3ccccc3)CCCC4)cc2n1Cc1ccc(-c2ccccc2C(=O)O)cc1` [Substanz E, 4'-[[2-Ethyl-4-methyl-6-(1-phenyl-5,6,7,8-tetrahydrobenzimidazol-2-yl)-1H-benzimidazol-1-yl]-methyl]-biphenyl-2-carbonsäure-hydrat], the IC50 was 46 nM.

In the case of `CCCc1nc2c(C)cc(-c3nc4c(n3CC(=O)O)CCCC4)cc2n1Cc1ccc(-c2ccccc2C(=O)O)cc1` [Substanz F, 4'-[[2-n-Propyl-4-methyl-6-(1-carboxymethyl-5,6,7,8-tetrahydrobenzimidazol-2-yl)-1H-benzimidazol-1-yl]-methyl]-biphenyl-2-carbonsäure-semihydrat], the IC50 was found to be 38 nM.

As for `CCc1nc2c(C)cc(-c3nc4c(n3CC)CCCC4)cc2n1Cc1ccc(-c2ccccc2-c2nnn[nH]2)cc1` [Substanz G, 4'-[[2-Ethyl-4-methyl-6-(1-ethyl-5,6,7,8-tetrahydro-benzimidazol-2-yl)-1H-benzimidazol-1-yl]-methyl]-2-(1H-tetrazol-5-yl)-biphenyl-hydrat], the IC50 was 1.6 nM.

On to `CCCc1nc2c(C)cc(C3=NC(C)(C)CO3)cc2n1Cc1ccc(-c2ccccc2C(=O)O)cc1` [Substanz H, 4'-[[2-n-Propyl-4-methyl-6-(4,4-dimethyl-oxazolin-2-yl)-1H-benzimidazol-1-yl]-methyl]-biphenyl-2-carbonsäure-di-trifluoracetat], for which the IC50 was 37 nM.

As to `CCCc1nc2c(C)cc(-c3nc(-c4ccccc4)c(C)n3C)cc2n1Cc1ccc(-c2ccccc2C(=O)O)cc1` [Substanz I, 4'-[[2-n-Propyl-4-methyl-6-(1,5-dimethyl-4-phenyl-imidazol-2-yl)-1H-benzimidazol-1-yl]-methyl]-biphenyl-2-carbonsäure-hydrat], the IC50 is 3.2 nM.

Consider `CCCc1nc2c(C)cc(-c3nc(C(C)C)c(C)n3C)cc2n1Cc1ccc(-c2ccccc2C(=O)O)cc1` [Substanz K, 4'-[[2-n-Propyl-4-methyl-6-(4-isopropyl-1,5-dimethyl-imidazol-2-yl)-1H-benzimidazol-1-yl]-methyl]-biphenyl-2-carbonsäure x 1,25 Wasser], for which the IC50 turned out to be 19.5 nM.

The values above are taken from patent EP0566020A1, “Benzimidazoles, pharmaceutical compositions thereof and processes for their preparation” (Dr. Karl Thomae GmbH, priority 1992, dated 1993).
